Measurements taken from PubChem BioAssay AID2060613 (Molecular Pharmacology Branch, DTP, NCI, 2025).

System: 233499-124-R-J3-PDC complex spheroid viability
Test: Anticancer human tumor 233499-124-R-J3-PDC patient-derived colon adenocarcinoma cell line growth inhibition [CLK]
Conditions: for IC50: curve of first compound; for viability, T/C: stronger effect = lower value
Outline: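 Patient-derived tumor cells grown as complex spheroids with HUVEC endothelial cells and mesenchymal stem cells, treated with drug combinations. Concentrations descend in half-log steps from near clinical Cmax, or from 10 microM if Cmax unknown.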

[1] = second compound 0.0316 µM, first compound 0.0316 µM
[2] = second compound 0.0316 µM, first compound 0.1 µM
[3] = second compound 0.0316 µM, first compound 0.316 µM
[4] = second compound 0.0316 µM, first compound 1 µM
[5] = second compound 0.0316 µM, first compound 3.16 µM
[6] = second compound 0.0316 µM, first compound 10 µM
[7] = second compound 0.1 µM, first compound 0.0316 µM
[8] = second compound 0.1 µM, first compound 0.1 µM
[9] = second compound 0.1 µM, first compound 0.316 µM
[10] = second compound 0.1 µM, first compound 1 µM
[11] = second compound 0.1 µM, first compound 3.16 µM
[12] = second compound 0.1 µM, first compound 10 µM
[13] = second compound 0.316 µM, first compound 0.0316 µM
[14] = second compound 0.316 µM, first compound 0.1 µM
[15] = second compound 0.316 µM, first compound 0.316 µM
[16] = second compound 0.316 µM, first compound 1 µM
[17] = second compound 0.316 µM, first compound 3.16 µM
[18] = second compound 0.316 µM, first compound 10 µM
[19] = second compound 1 µM, first compound 0.0316 µM
[20] = second compound 1 µM, first compound 0.1 µM
[21] = second compound 1 µM, first compound 0.316 µM
[22] = second compound 1 µM, first compound 1 µM
[23] = second compound 1 µM, first compound 3.16 µM
[24] = second compound 1 µM, first compound 10 µM
[25] = second compound 3.16 µM, first compound 0.0316 µM
[26] = second compound 3.16 µM, first compound 0.1 µM
[27] = second compound 3.16 µM, first compound 0.316 µM
[28] = second compound 3.16 µM, first compound 1 µM
[29] = second compound 3.16 µM, first compound 3.16 µM
[30] = second compound 3.16 µM, first compound 10 µM
[31] = second compound 10 µM, first compound 0.0316 µM
[32] = second compound 10 µM, first compound 0.1 µM
[33] = second compound 10 µM, first compound 0.316 µM
[34] = second compound 10 µM, first compound 1 µM
[35] = second compound 10 µM, first compound 3.16 µM
[36] = second compound 10 µM, first compound 10 µM
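Note: spheroids exposed to the drug combinations for seven days.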
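Throughout, for viability, T/C: percent viability relative to DMSO vehicle control wells taken as 100%.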

C#Cc1c(F)ccc2cc(O)cc(-c3ncc4c(N5CC6CCC(C5)N6)nc(OCC56CCCN5CC(F)C6)nc4c3F)c12 (centres undefined) + CNC(=O)c1ccc(Nc2nc(OC3CCCC3)c3c(-c4ccc5nc(C)oc5c4)c[nH]c3n2)c(OC)c1
IC50 (second compound 0.0316 µM): > 10 µM | IC50 (second compound 0.1 µM): > 10 µM | IC50 (second compound 0.316 µM): > 10 µM | IC50 (second compound 1 µM): > 10 µM | IC50 (second compound 3.16 µM): > 10 µM | IC50 (second compound 10 µM): 5.76 µM | viability, T/C [1]: 98.8% | viability, T/C [2]: 98.2% | viability, T/C [3]: 86.5% | viability, T/C [4]: 91% | viability, T/C [5]: 75.9% | viability, T/C [6]: 88.7% | viability, T/C [7]: 76.5% | viability, T/C [8]: 62.8% | viability, T/C [9]: 72.7% | viability, T/C [10]: 75.8% | viability, T/C [11]: 74.3% | viability, T/C [12]: 57.7% | viability, T/C [13]: 90.3% | viability, T/C [14]: 74.9% | viability, T/C [15]: 85.3% | viability, T/C [16]: 68.3% | viability, T/C [17]: 74.8% | viability, T/C [18]: 55% | viability, T/C [19]: 78.3% | viability, T/C [20]: 78.9% | viability, T/C [21]: 68.4% | viability, T/C [22]: 56.8% | viability, T/C [23]: 81.4% | viability, T/C [24]: 55.2% | viability, T/C [25]: 54.4% | viability, T/C [26]: 73.1% | viability, T/C [27]: 52.8% | viability, T/C [28]: 70.8% | viability, T/C [29]: 68.3% | viability, T/C [30]: 53% | viability, T/C [31]: 75.5% | viability, T/C [32]: 77.7% | viability, T/C [33]: 68.8% | viability, T/C [34]: 68.4% | viability, T/C [35]: 60.9% | viability, T/C [36]: 40.6%

C=C(F)C(=O)N1CCN(c2nc(OCC3CCCN3C)nc3c2CCN(c2cccc4cccc(Cl)c24)C3)CC1CC#N (centres undefined) + CNC(=O)c1ccc(Nc2nc(OC3CCCC3)c3c(-c4ccc5nc(C)oc5c4)c[nH]c3n2)c(OC)c1
IC50 (second compound 0.0316 µM): 8.76 µM | IC50 (second compound 0.1 µM): 4.72 µM | IC50 (second compound 0.316 µM): 5.57 µM | IC50 (second compound 1 µM): 5.66 µM | IC50 (second compound 3.16 µM): 5.53 µM | IC50 (second compound 10 µM): 5.2 µM | viability, T/C [1]: 92.1% | viability, T/C [2]: 84.5% | viability, T/C [3]: 99% | viability, T/C [4]: 89.6% | viability, T/C [5]: 93.5% | viability, T/C [6]: 44.5% | viability, T/C [7]: 65.9% | viability, T/C [8]: 73.2% | viability, T/C [9]: 81.3% | viability, T/C [10]: 70.2% | viability, T/C [11]: 61.4% | viability, T/C [12]: 28% | viability, T/C [13]: 76.7% | viability, T/C [14]: 64.9% | viability, T/C [15]: 69.7% | viability, T/C [16]: 72.8% | viability, T/C [17]: 79.2% | viability, T/C [18]: 26.7% | viability, T/C [19]: 71.4% | viability, T/C [20]: 82.5% | viability, T/C [21]: 78.4% | viability, T/C [22]: 64% | viability, T/C [23]: 71.2% | viability, T/C [24]: 30% | viability, T/C [25]: 76.8% | viability, T/C [26]: 77.3% | viability, T/C [27]: 75.8% | viability, T/C [28]: 73.1% | viability, T/C [29]: 75.7% | viability, T/C [30]: 22.9% | viability, T/C [31]: 75.5% | viability, T/C [32]: 66.3% | viability, T/C [33]: 73.8% | viability, T/C [34]: 66.5% | viability, T/C [35]: 74.3% | viability, T/C [36]: 22%
